Data from patent US20170239289A1, “TREATMENT OF INFLAMMATION, RESPIRATORY TRACT INFECTIONS AND CYSTIC FIBROSIS” (Advanced Inhalation Therapies (AIT) Ltd., priority 2014, published 2017).
“And” between values parts separate entries of the source, which are not always exact repeats. Equal entries are not always repeated.

Tested on: human subjects diagnosed with acute bronchiolitis
Test: Example 3: randomized bronchiolitis study, infants 2-12 months; 160 ppm NO 30 min 5x daily up to 5 days plus O2 vs O2 alone; efficacy
Assay type: in vivo
Text: Eligible subjects were randomized (1:1) to receive intermittent NO and standard treatment with O2 (hereafter referred to as NO treatment) or standard treatment with O2 (hereafter referred to as standard treatment) alone for a treatment period of up to 5 days. During treatment, MetHb and O2 saturation levels were continuously monitored using a dedicated monitor.
In addition to standard supportive O2 treatment which was initiated prior to randomization, subjects in the NO group were given five 30 minute inhalations per day of 160 ppm NO, at intervals of 3 to 4 hours, until subject improvement led to a physician decision of fit to discharge, to a maximum of 25 inhalations over 5 consecutive days. Inhalations were administered via hospital face masks (Hospiltak, Unomedical Inc).
All subjects in the control group were managed with standard supportive O2 treatment in the same way as the active treatment group, but without actual NO administration.
Secondary Endpoints—Efficacy: • LOS in hours, measured as time from first inhalation treatment to “fit to discharge” • Time to reach 92% O2 saturation (in room air) measured as time from first inhalation treatment to first O2 saturation of 92% sustained to discharge • Time to clinical score of less than or equal to 5 measured as time from first inhalation treatment to clinical score of less than or equal to 5
The following analysis sets were defined for analysis of safety and efficacy: • Intent-to-treat (ITT): Defined as all randomized subjects who received at least one study treatment. This was the main set for analysis of efficacy and safety. • Per-Protocol (PP): Defined as all subjects in the ITT cohort who completed study treatment in compliance with the protocol (i.e., excludes all early termination subjects) and who had no major protocol violations. This was a secondary set for analysis of efficacy.
An additional set for analysis of efficacy was defined post-hoc: • Modified Intent-to-treat (mITT): Defined as all subjects in the ITT, excluding subjects who were prematurely discontinued from treatment and/or or discontinued from the study according to protocol guidelines.
Length of hospitalization stay (LOS) was calculated in hours from the first inhalation treatment to “fit to discharge” defined as physician decision to discharge.
Time to achieve O2 saturation of 92% (improvement) leading to discharge was calculated from first treatment to the first time of O2 saturation of at least 92% before discharge. Time was taken from the clinical score assessments where applicable and from subject daily chart in special circumstances.
Time to clinical score of less than or equal to 5 was calculated from first inhalation to the first time the subject reached a clinical score of less than or equal to 5.
Survival Analysis using a Kaplan-Meier survival function curve was applied for testing the statistical significance of the difference between the study groups in the following endpoints: • LOS, from first inhalation to fit to discharge • Time to achieve 92% Saturation leading to discharge • Time to achieve clinical score less than or equal to 5
The Cox model was applied for comparative analysis of Kaplan-Meier curves. The hazards ratio was estimated via the Cox's regression model.
Post-hoc subgroup analyses of subjects with a LOS less than or equal to 24 hours and greater than 24 hours were also conducted for the key post-hoc secondary endpoints. Additional exploratory analyses were also conducted on a subgroups with LOS greater than 36 hours and a subgroup of the 10 most severe subjects (i.e., longest LOS) from each treatment group. These post-hoc analyses were conducted for the following reasons: • Based on preclinical studies, the anti-viral/anti-microbial treatment effect of NO is expected to take at least 24 hours (i.e., 2.5 treatment hours). • Approximately ⅓ of subjects were discharged after less than 24 hours in hospital. […]

[1] = mITT, 10 most severe subjects from each group
[2] = mITT, LOS greater than 24 hours
[3] = mITT, LOS greater than 36 hours

[N]=O [NO, nitric oxide]
Hazard ratio, time to sustained 92% O2 saturation (ITT (N=42), NO vs standard treatment, 95% CI: 0.392, 1.361): 0.731 | Hazard ratio, time to clinical score less than or equal to 5 (ITT (N=43), NO vs standard treatment, 95% CI: 0.378, 1.404): 0.728 | Hazard ratio, LOS (Kaplan-Meier/Cox) (ITT (N=43), NO vs standard treatment, 95% CI: 0.435, 1.518): 0.812 | Time to first 92% O2 saturation sustained to discharge, Mean (SD) (ITT, All (N = 42)): 35.50 (33.73) hours and 35.50 hours | Time to first 92% O2 saturation sustained to discharge, Median (ITT, All (N = 42)): 21.08 h | LOS, hours Mean (SD) (ITT, All (N = 43)): 43.34 (32.95) hours and 43.34 hours | LOS, hours Median (ITT, All (N = 43)): 40.03 h | Time to Clinical Score ≦5, Mean (SD) (ITT, All (N = 43)): 32.83 (30.61) hours and 32.83 hours | Time to Clinical Score ≦5, Median (ITT, All (N = 43)): 21.08 h | LOS, hours Mean (SD) (ITT, LOS >24 hours (N = 27)): 53.27 h | LOS, hours Median (ITT, LOS >24 hours (N = 27)): 41.92 h | Time to Clinical Score ≦5, Mean (SD) (ITT, LOS >24 hours (N = 27)): 39.62 h | Time to Clinical Score ≦5, Median (ITT, LOS >24 hours (N = 27)): 39.92 h | Time to first 92% O2 saturation sustained to discharge, Mean (SD) (ITT, LOS >24 hours (N = 27)): 43.35 h | Time to first 92% O2 saturation sustained to discharge, Median (ITT, LOS >24 hours (N = 27)): 41.17 h | Hazard ratio, time to clinical score less than or equal to 5 (ITT, LOS greater than 24 hours, 95% CI: 0.161, 0.949): 0.391 | Hazard ratio, LOS (Kaplan-Meier/Cox) (ITT, LOS greater than 24 hours, 95% CI: 0.211, 1.091): 0.480 | Hazard ratio, time to sustained 92% O2 saturation (ITT, LOS greater than 24 hours, 95% CI: 0.232, 1.145): 0.515 | Time to first 92% O2 saturation sustained to discharge, Mean (SD) (ITT, LOS ≦24 hours (N = 15)): 15.86 h | Time to first 92% O2 saturation sustained to discharge, Median (ITT, LOS ≦24 hours (N = 15)): 16.78 h | LOS, hours Mean (SD) (ITT, LOS ≦24 hours (N = 16)): 18.52 h | LOS, hours Median (ITT, LOS ≦24 hours (N = 16)): 18.50 h | Time to Clinical Score ≦5, Mean (SD) (ITT, LOS ≦24 hours (N = 16)): 15.86 h | Time to Clinical Score ≦5, Median (ITT, LOS ≦24 hours (N = 16)): 16.78 h | Hazard ratio, time to sustained 92% O2 saturation (PP (N=38), 95% CI: 0.334, 1.302): 0.660 | Hazard ratio, time to clinical score less than or equal to 5 (PP (N=39), 95% CI: 0.332, 1.324): 0.663 | Hazard ratio, LOS (Kaplan-Meier/Cox) (PP (N=39), 95% CI: 0.444, 1.688): 0.866 | Time to first 92% O2 saturation sustained to discharge, Mean (SD) (PP, All (N = 38)): 30.17 (21.06) hours and 30.17 hours | Time to first 92% O2 saturation sustained to discharge, Median (PP, All (N = 38)): 21.08 h | LOS, hours Mean (SD) (PP, All (N = 39)): 38.79 (21.52) hours and 38.79 hours | LOS, hours Median (PP, All (N = 39)): 40.03 h | Time to Clinical Score ≦5, Mean (SD) (PP, All (N = 39)): 27.18 (13.17) hours and 27.18 hours | Time to Clinical Score ≦5, Median (PP, All (N = 39)): 21.08 h | LOS, hours Mean (SD) (PP, LOS >24 hours (N = 24)): 46.03 h | LOS, hours Median (PP, LOS >24 hours (N = 24)): 41.83 h | Time to Clinical Score ≦5, Mean (SD) (PP, LOS >24 hours (N = 24)): 31.41 h | Time to Clinical Score ≦5, Median (PP, LOS >24 hours (N = 24)): 34.92 h | Time to first 92% O2 saturation sustained to discharge, Mean (SD) (PP, LOS >24 hours (N = 24)): 35.47 h | Time to first 92% O2 saturation sustained to discharge, Median (PP, LOS >24 hours (N = 24)): 38.98 h | Hazard ratio, time to clinical score less than or equal to 5 (PP, LOS greater than 24 hours, 95% CI: 0.093, 0.799): 0.273 | Hazard ratio, time to sustained 92% O2 saturation (PP, LOS greater than 24 hours, 95% CI: 0.139, 0.921): 0.358 | Hazard ratio, LOS (Kaplan-Meier/Cox) (PP, LOS greater than 24 hours, 95% CI: 0.164, 1.062): 0.418 | Time to first 92% O2 saturation sustained to discharge, Mean (SD) (PP, LOS ≦24 hours (N = 14)): 15.32 h | Time to first 92% O2 saturation sustained to discharge, Median (PP, LOS ≦24 hours (N = 14)): 16.75 h | LOS, hours Mean (SD) (PP, LOS ≦24 hours (N = 15)): 18.50 h | LOS, hours Median (PP, LOS ≦24 hours (N = 15)): 18.42 h | Time to Clinical Score ≦5, Mean (SD) (PP, LOS ≦24 hours (N = 15)): 15.32 h | Time to Clinical Score ≦5, Median (PP, LOS ≦24 hours (N = 15)): 16.75 h | median time to clinical score less than or equal to 5 (mITT, 10 most severe subjects (based on LOS) from each group): 41.56 h | median LOS [1]: 42.14 h | median time to 92% O2 saturation sustained to discharge [1]: 41.59 h | median time to clinical score less than or equal to 5 [2]: 34.92 h | median time to first 92% O2 saturation sustained to discharge [2]: 38.98 h | median LOS (mITT, LOS greater than 24 hours (N=25)): 41.83 h | Hazard ratio, time to clinical score less than or equal to 5 (mITT, LOS greater than 24 hours, 95% CI: 0.081, 0.699): 0.238 | Hazard ratio, time to sustained 92% O2 saturation (mITT, LOS greater than 24 hours, 95% CI: 0.119, 0.797): 0.308 | Hazard ratio, LOS (Kaplan-Meier/Cox) (mITT, LOS greater than 24 hours, 95% CI: 0.140, 0.913): 0.357 | median LOS [3]: 41.92 h | median time to 92% O2 saturation sustained to discharge [3]: 41.37 h | median time to clinical score less than or equal to 5 [3]: 41.37 h
